Measured values reported in patent US20230295201A1 (Gilead Sciences, Inc., priority 2020, published 2023).
pEC50: −log10 of the molar value. Like-named read-outs stand apart in the source and are kept apart here.

Experiments:
Assay type in all cases: cell-based
HRV16 = HRV16 HELA EC50 (cytopathic effect in H1-HeLa cells)
Procedure, shortened: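 Read-out is luminescent cell viability (CellTiter-Glo) after 96 h of infection at 33 °C, scaled between uninfected and infected-untreated wells. Before infection with titrated virus, compounds went onto H1-HeLa cells as triplicate 3-fold dilution series.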

RSV strain A2 = experiment: RSV HEp-2 EC50 (infectious cytopathic cell protection assay); conditions: human respiratory syncytial virus, HEp-2 cells, RSV A2, 4 days, read-out: RSV HEp-2 EC50
Procedure, shortened: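 Percent inhibition of RSV-induced cytopathic effect came from remaining cell viability (CellTiter-Glo luminescence) after 4 days at 37° C. Compounds in 3-fold serial dilutions were exposed to an infectious mix of titered A2 virus and HEp-2 cells at 50,000/ml, with 0% and 100% inhibition control standards.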

RSV A2 = experiment: RSV NHBE EC50 (RSV A2 antiviral assay in normal human bronchial epithelial cells); conditions: human respiratory syncytial virus, 96 h, NHBE cells, RSV A2, 4 days, read-out: RSV NHBE EC50
DENV2 replicon = experiment: DENV-2 Huh-7 Rep EC50 (replicon luminescence); conditions: Dengue virus, DENV2, Huh-7, 48 h, read-out: DENV-2 Huh-7 Rep EC50
Procedure, shortened: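 EC50 derived from luminescence dose-response, normalised to DMSO-only 0% inhibition wells, after 1.5 h with EnduRen substrate. Compounds were first exposed for 48 h at 37° C to DENV2 replicon Huh-7 cells (5,000/well).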

[1] = 96 h, H1-HeLa cells, 33° C., read-out: HRV16 HELA EC50
[2] = H1-HeLa cells, 96 h, 33° C.; read-out: HRV16 HELA EC50

Row | SMILES | pEC50 (HRV16; [1]) | pEC50 (RSV strain A2; HEp-2, 96 h) | pEC50 (RSV A2; NHBE) | pEC50 (DENV2 replicon; Huh-7 replicon cells, 48 hours) | pEC50 (HRV16; [2]) | pEC50 (RSV strain A2; 96 h) | pEC50 (RSV A2) | pEC50 (DENV2 replicon)
1 | COC(C)(C)COC(=O)[C@H](C)NP(=O)(OC[C@@]1(C#N)O[C@@H](c2ccc3c(N)ncnn23)[C@H](O)[C@@H]1O)Oc1ccccc1 (stereo partly drawn) [Example 164, 2-methoxy-2-methylpropyl ((((2R,3S,4R,5S)-5-(4-aminopyrrolo[2,1-f][1,2,4]triazin-7-yl)-2-cyano-3,4-dihydroxytetrahydrofuran-2-yl)methoxy)(phenoxy)phosphoryl)-L-alaninate] | 5.40 | 5.91 | 6.14 | < 4.30 |  |  |  | 
2 | COC1CCC(OC(=O)[C@H](C)NP(=O)(OC[C@@]2(C#N)O[C@@H](c3ccc4c(N)ncnn34)[C@H](O)[C@@H]2O)Oc2ccccc2)CC1 (stereo partly drawn) [Example 165, 4-methoxycyclohexyl ((((2R,3S,4R,5S)-5-(4-aminopyrrolo[2,1-f][1,2,4]triazin-7-yl)-2-cyano-3,4-dihydroxytetrahydrofuran-2-yl)methoxy)(phenoxy)phosphoryl)alaninate] | 4.95 | 5.71 | 5.79 | < 4.00 |  |  |  | 
3 | N#C[C@]1(COP(=O)(NCCOC(=O)C2CCCCC2)Oc2ccccc2)O[C@@H](c2ccc3c(N)ncnn23)[C@H](O)[C@@H]1O (stereo partly drawn) [Example 166, 2-(((((2R,3S,4R,5S)-5-(4-aminopyrrolo[2,1-f][1,2,4]triazin-7-yl)-2-cyano-3,4-dihydroxytetrahydrofuran-2-yl)methoxy)(phenoxy)phosphoryl)amino)ethyl cyclohexane carboxylate] | 6.47 | 7.08 | 6.20 | 4.66 |  |  |  | 
4 | C=CCO[C@H](COCCCCCCCCCCCCCCCCCC)COP(=O)(O)OC[C@@]1(C#N)O[C@@H](c2ccc3c(N)ncnn23)[C@H](O)[C@@H]1O [Example 167, (R)-2-(allyloxy)-3-(octadecyloxy)propyl (((2R,3S,4R,5S)-5-(4-aminopyrrolo[2,1-f][1,2,4]triazin-7-yl)-2-cyano-3,4-dihydroxytetrahydrofuran-2-yl)methyl) hydrogen phosphate] |  |  |  |  | 4.92 | 6.19 | 6.44 | < 4.00
5 | C[C@H](N[P@](=O)(OC[C@@]1(C#N)O[C@@H](c2ccc3c(N)ncnn23)[C@@H]2OC(=O)O[C@@H]21)Oc1ccccc1)C(=O)OC1CCCCC1 [Example 168, cyclohexyl ((S)-(((3aS,4R,6S,6aS)-6-(4-aminopyrrolo[2,1-f][1,2,4]triazin-7-yl)-4-cyano-2-oxotetrahydrofuro[3,4-d][1,3]dioxol-4-yl)methoxy)(phenoxy)phosphoryl)-L-alaninate] | 6.80 | 7.28 | 6.99 | 5.33 |  |  |  | 
6 | C[C@H](NP(=O)(OC[C@@]1(C#N)O[C@@H](c2ccc3c(N)ncnn23)[C@H](O)[C@@H]1O)Oc1ccccc1)C(=O)OC1CCCCCCC1 (stereo partly drawn) [Example 171, cyclooctyl ((((2R,3S,4R,5S)-5-(4-aminopyrrolo[2,1-f][1,2,4]triazin-7-yl)-2-cyano-3,4-dihydroxytetrahydrofuran-2-yl)methoxy)(phenoxy)phosphoryl)-L-alaninate] | 6.24 | 6.66 | 6.43 | 4.50 |  |  |  | 
7 | CC(C)COC(=O)OCCNP(=O)(OC[C@@]1(C#N)O[C@@H](c2ccc3c(N)ncnn23)[C@H](O)[C@@H]1O)Oc1ccccc1 (stereo partly drawn) [Example 177, 2-(((((2R,3S,4R,5S)-5-(4-aminopyrrolo[2,1-f][1,2,4]triazin-7-yl)-2-cyano-3,4-dihydroxytetrahydrofuran-2-yl)methoxy)(phenoxy)phosphoryl)amino)ethyl isobutyl carbonate] | 5.94 | 6.98 | 5.81 | < 4.30 |  |  |  | 
8 | C[C@H](NP(=O)(N[C@@H](C)C(=O)OCC(C)(C)C)OC[C@@]1(C#N)O[C@@H](c2ccc3c(N)ncnn23)[C@H](O)[C@@H]1O)C(=O)OCC(C)(C)C [Example 182] |  |  |  |  | 5.07 | 5.93 | 5.68 | < 4.30
9 | C[C@H](NP(=O)(OC[C@@]1(C#N)O[C@@H](c2ccc3c(N)ncnn23)[C@H](O)[C@@H]1O)Oc1ccccc1)C(=O)OC1CCC(C)(C)CC1 (stereo partly drawn) [Example 183, 4,4-dimethylcyclohexyl ((((2R,3S,4R,5S)-5-(4-aminopyrrolo[2,1-f][1,2,4]triazin-7-yl)-2-cyano-3,4-dihydroxytetrahydrofuran-2-yl)methoxy)(phenoxy)phosphoryl)-L-alaninate] | 6.76 | 7.10 | 5.92 | 4.76 |  |  |  | 
10 | CC(=O)N1CCC(OC(=O)C(C)NP(=O)(OC[C@@]2(C#N)O[C@@H](c3ccc4c(N)ncnn34)[C@H](O)[C@@H]2O)Oc2ccccc2)CC1 (stereo partly drawn) [Example 185, 1-acetylpiperidin-4-yl ((((2R,3S,4R,5S)-5-(4-aminopyrrolo[2,1-f][1,2,4]triazin-7-yl)-2-cyano3,4-dihydroxytetrahydrofuran-2-yl)methoxy)(phenoxy)phosphoryl)alaninate] | < 4.10 | 5.10 | < 5.30 | < 4.00 |  |  |  | 
11 | C[C@H](NP(=O)(OC[C@@]1(C#N)O[C@@H](c2ccc3c(N)ncnn23)[C@H](O)[C@@H]1O)Oc1ccccc1)C(=O)O[C@H]1CC[C@H](c2ccccc2)CC1 (stereo partly drawn) [Example 186, trans-4-phenylcyclohexyl ((((2R,3S,4R,5S)-5-(4-aminopyrrolo[2,1-f][1,2,4]triazin-7-yl)-2-cyano-3,4-dihydroxytetrahydrofuran-2-yl)methoxy)(phenoxy)phosphoryl)-L-alaninate] | 5.32 | 5.56 | 7.15 | 4.22 |  |  |  | 
12 | CCCCCCCCCCCCCCCCOCCCNP(=O)(OC[C@@]1(C#N)O[C@@H](c2ccc3c(N)ncnn23)[C@H](O)[C@@H]1O)Oc1ccccc1 (stereo partly drawn) [Example 187, ((2R,3S,4R,5S)-5-(4-aminopyrrolo[2,1-f][1,2,4]triazin-7-yl)-2-cyano-3,4-dihydroxytetrahydrofuran-2-yl)methyl phenyl (3-(hexadecyloxy)propyl)phosphoramidate] | 4.69 | 5.83 | < 5.30 | 5.03 |  |  |  | 
13 | CCCCCCCCCCCCCCCCCCOC[C@H](COC(=O)C(C)NP(=O)(OC[C@@]1(C#N)O[C@@H](c2ccc3c(N)ncnn23)[C@H](O)[C@@H]1O)Oc1ccccc1)OCc1ccccc1 (stereo partly drawn) [Example 190, (R)-2-(benzyloxy)-3-(octadecyloxy)propyl ((((2R,3S,4R,5S)-5-(4-aminopyrrolo[2,1-f][1,2,4]triazin-7-yl)-2-cyano3,4-dihydroxytetrahydrofuran-2-yl)methoxy)(phenoxy)phosphoryl)alaninate] | 5.58 | 6.87 | 5.69 | < 4.00 |  |  |  | 
14 | CCCCCCCCCCCCCCCCCCOC(=O)[C@H](C)NP(=O)(OC[C@@]1(C#N)O[C@@H](c2ccc3c(N)ncnn23)[C@H](O)[C@@H]1O)Oc1ccccc1 (stereo partly drawn) [Example 193, octadecyl ((((2R,3S,4R,5S)-5-(4-aminopyrrolo[2,1-f][1,2,4]triazin-7-yl)-2-cyano-3,4-dihydroxytetrahydrofuran-2-yl)methoxy)(phenoxy)phosphoryl)-L-alaninate] | 6.12 | 6.61 | 6.33 | < 4.30 |  |  |  | 
15 | CCCCCCCCCCCCCCCCOCCCOC(=O)[C@H](C)NP(=O)(OC[C@@]1(C#N)O[C@@H](c2ccc3c(N)ncnn23)[C@H](O)[C@@H]1O)Oc1ccccc1 (stereo partly drawn) [Example 198, 3-(hexadecyloxy)propyl ((((2R,3S,4R,5S)-5-(4-aminopyrrolo[2,1-f][1,2,4]triazin-7-yl)-2-cyano-3,4-dihydroxytetrahydrofuran-2-yl)methoxy)(phenoxy)phosphoryl)alaninate] | 6.26 | 6.21 | 7.43 | 4.41 |  |  |  | 
16 | CCCCCCCCCCCCCCCCOC(=O)[C@H](C)NP(=O)(OC[C@@]1(C#N)O[C@@H](c2ccc3c(N)ncnn23)[C@H](O)[C@@H]1O)Oc1ccccc1 (stereo partly drawn) [Example 199, hexadecyl ((((2R,3S,4R,5S)-5-(4-aminopyrrolo[2,1-f][1,2,4]triazin-7-yl)-2-cyano-3,4-dihydroxytetrahydrofuran-2-yl)methoxy)(phenoxy)phosphoryl)-L-alaninate] | 6.13 | 5.95 | 7.48 | 4.42 |  |  |  | 
17 | CCC(CC)COC(=O)[C@H](C)NP(=O)(N[C@@H](C)C(=O)OCC(C)(C)C)OC[C@@]1(C#N)O[C@@H](c2ccc3c(N)ncnn23)[C@H](O)[C@@H]1O (stereo partly drawn) [Example 200, 2-ethylbutyl ((((2R,3S,4R,5S)-5-(4-aminopyrrolo[2,1-f][1,2,4]triazin-7-yl)-2-cyano-3,4-dihydroxytetrahydrofuran-2-yl)methoxy)(((S)-1-(neopentyloxy)-1-oxopropan-2-yl)amino)phosphoryl)-L-alaninate] |  |  |  |  | 5.25 | 5.85 | 6.90 | < 4.30
